Experimental data taken from patent US20080206374A1 (priority 2003, published 2008).

Assays:
[1] = tested on: thrombosis in vitro; test: thrombosis in vitro of rats (Chandler method); type: in vivo; conditions: 90 mg/kg i.v., once per day for 3 days
Description: (§1) All the animal groups were intravenously injected the medicaments through caudal vein with the said dose of 4 ml/kg, once per day for continuously 3 days. 30 minutes after the final injection, animals were anaesthetized with pentobarbital sodium (30.0 mg/kg). 2 ml blood was then drawn from the abdominal aorta for the measurement of the thrombosis in vitro and 3 ml blood (heparinized) was drawn for the measurement of blood viscosity.
Measurement of the thrombuses in vitro: According to Chandler method in vitro, the blood was immediately filled and sealed in a rotating ring with the volume less than ½ ring (1.8 ml). It was placed on a thrombosis Instrument and rotated for 10 minutes (with experimental temperature of 37° C.). Then the thrombus was spilled out and washed with physiological saline. The length was measured and the wet quality was weighed. The thrombus bar was placed in an 80° C. oven for 3 hours. It was weighed after the weight getting stable.

[2] = blood viscosity of rats; type: in vivo; conditions: 90 mg/kg i.v., once per day for 3 days
Description: as §1
Measurement of the blood viscosity: 0.8 ml blood was taken from the 3 ml blood sample (heparinized) to measure the whole blood viscosity. The rest of the sample was centrifuged at 650×g for 10 minutes. 0.8 ml supernatant was taken to measure the blood plasma viscosity.

[3] = tested on: Platelet Aggregation; test: platelet aggregation of rabbits (Born Turbidimetry); type: in vivo; conditions: 45 mg/kg i.v. once per day for 3 days
Description: Before administration, the artery in ears was punctured and the blood was taken to measure the platelet aggregation rate. According to the level of platelet aggregation and the body weight, the 48 rabbits were randomly divided into 6 groups (8 rabbits per group):
The administration groups were administered medicaments intravenously through ear edges with the said dosages, and the Control group was injected with equivalent volume of 0.9% sodium chloride, once per day for continuously 3 days. After the final medicaments administration, the artery in ears was punctured, the blood sample was taken and the platelet aggregation rate was measured.
The artery in ears was punctured with a siliconized injector to take blood sample, which was anticoagulated with the citron sodium solution (blood:anticoagulant=9:1). The blood sample solution was centrifuged at 200×g for 8 minutes, and the supernatant, that is, the Platelet Rich Plasma (PRP) was taken. The rest of the solution was centrifuged at 2200×g for 10 minutes, and the top clear part, that is, the Platelet Poor Plasma (PPP) was taken. The count of Platelets in PRP was about 4.0×10^5/mm^3. According to the Born Turbidimetry, the turbidity tube with 200 μl PRP and a small magnetic stick was placed in the platelet aggregation instrument and kept at 37° C. for one minute. After PPP being standardized, an inducer was added with stirring to induce the aggregation. The end concentration of the inducer is: 47.6 μM/L (ADP), 782.0 μM/L (M), and […] (Collagen). The influence of the medicaments upon the Platelet Aggregation was analyzed according to the aggregation curves and maximal aggregation rate printed by the instrument. The calculating formula for maximal aggregation rate was as follows:
aggregation=Transmittance after PRP Aggregation−Transmittance before PRP Aggregation×100% rate Transmittance of PPP−Transmittance before PRP Aggregation

[4] = tested on: Sarcoma S180 lines; conditions: cyclophosphamide alone
Description: Kunming Hybrid mice with weight of 18-22 g were inoculated with Sarcoma S180 lines.
The experimental medicament and animals of this experiment were the same as that of Experimental Example 2.

SMILES	Thrombus Dry weight [1]	Thrombus Length [1]	Thrombus Wet weight [1]	Blood viscosity (100 S^−1) [2]	Whole blood viscosity, High shearing (200 S^−1) [2]	Whole blood viscosity, Low shearing (5 S^−1) [2]	Whole blood viscosity, Middle shearing (30 S^−1) [2]	Whole blood viscosity, Middle shearing (100 S^−1) [2]	Aggregation Rate After administration ([3]; Inducer AA)	Aggregation Rate Value Difference (after − before) ([3]; Inducer AA)	Aggregation Rate After administration ([3]; Inducer ADP)	Aggregation Rate Value Difference (after − before) ([3]; Inducer ADP)	Aggregation Rate After administration ([3]; Inducer Collagen)	Aggregation Rate Value Difference (after − before) ([3]; Inducer Collagen)	tumor body (M ± SD) [4]	Rate of Inhibiting tumors ([4]; compared with the Blank Control group)
CC(=O)Oc1ccccc1C(=O)O.NCCCCC(N)C(=O)O (racemic) [Aspirin-DL-Lysine]	18.9 ± 1.4 mg	18.8 ± 1.5 mm	100.1 ± 12.5 mg	2.38 ± 1.12	3.37 ± 0.58 CP	6.35 ± 1.03 CP	4.71 ± 0.95 CP	3.81 ± 0.91 CP	0.24 ± 0.69%	−63.65 ± 7.05 %	57.78 ± 6.01%	8.85 ± 6.37%	45.29 ± 5.72%	−21.19 ± 4.24 %	–	–
O=P1(N(CCCl)CCCl)NCCCO1 (stereo not shown) [cyclophosphamide]	–	–	–	–	–	–	–	–	–	–	–	–	–	–	0.89 ± 0.55 volume %	65%Δ
